Assay results reported in US20230250098A1 (priority 2021, published 2023).
“Also recorded” adds a separate entry of the source. Structures can show the parent of a compound that is named as a salt.

Experiments:
κOP [1] = target: T1, κOP (Homo sapiens, UniProt P41145); type: binding; set-up: membranes isolated; conditions: for Ki: read-out: Binding Ki
C57Bl/6 wild-type mice [2] = test: Two-bottle choice alcohol paradigm (drinking in the dark, 10% ethanol vs water); type: in vivo, mouse
δOP [3] = target: T2, δOP (Homo sapiens, UniProt P41143); type: binding; set-up: membranes isolated; conditions: for Binding pKi / Ki: [3H]DPDPE, CHO membranes; for Ki: read-out: Binding Ki
T2 sequence (P41143 whole entry): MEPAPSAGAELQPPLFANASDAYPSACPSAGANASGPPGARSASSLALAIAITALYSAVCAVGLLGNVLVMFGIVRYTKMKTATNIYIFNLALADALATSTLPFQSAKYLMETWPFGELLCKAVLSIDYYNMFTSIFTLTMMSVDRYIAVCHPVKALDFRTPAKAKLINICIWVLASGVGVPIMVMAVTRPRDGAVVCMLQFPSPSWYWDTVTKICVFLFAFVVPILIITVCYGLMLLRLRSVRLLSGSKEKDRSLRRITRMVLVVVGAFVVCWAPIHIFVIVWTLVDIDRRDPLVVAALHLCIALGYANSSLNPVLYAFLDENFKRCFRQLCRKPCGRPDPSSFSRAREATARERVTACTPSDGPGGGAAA

C57Bl/6 wild-type mice [4] = conditions: cited from earlier work; for alcohol consumption, in words (previous reports): dose not stated
δOP [5] = target: T2, δOP; type: cell-based
FLAG-mouse δOP = target: T3, FLAG-mouse δOP (Mus musculus, UniProt P32300); test: GloSensor cAMP inhibition assay in transfected HEK cells; type: cell-based; conditions: for cAMP α: efficacy normalized to positive control Leu-Enk; for IC50 / cAMP pIC50: inhibition of forskolin-induced cAMP
T3 construct: FLAG (N); expressed in transfected cells; host or cells: HEK cells (HEK-293), transient transfection together with pGloSensor22F
T3 sequence (P32300 whole entry): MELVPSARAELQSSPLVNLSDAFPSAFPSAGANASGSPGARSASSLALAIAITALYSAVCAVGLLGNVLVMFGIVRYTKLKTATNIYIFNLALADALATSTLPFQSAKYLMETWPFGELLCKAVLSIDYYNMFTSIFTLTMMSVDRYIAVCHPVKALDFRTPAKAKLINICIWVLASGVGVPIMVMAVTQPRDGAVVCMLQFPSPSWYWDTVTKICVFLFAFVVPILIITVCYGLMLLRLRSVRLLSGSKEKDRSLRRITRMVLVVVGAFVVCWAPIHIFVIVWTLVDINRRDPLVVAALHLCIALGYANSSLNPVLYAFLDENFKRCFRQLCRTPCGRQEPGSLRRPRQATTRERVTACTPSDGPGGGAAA

HA-mouse μOP = target: T4, HA-mouse μOP (Mus musculus, UniProt P42866); test: as above; type: cell-based; conditions: for cAMP α: efficacy normalized to positive control DAMGO; for IC50 / cAMP pIC50: inhibition of forskolin-induced cAMP
T4 construct: HA (N); expressed in transfected cells; host or cells: HEK cells, transient transfection together with pGloSensor22F
T4 sequence (P42866 whole entry): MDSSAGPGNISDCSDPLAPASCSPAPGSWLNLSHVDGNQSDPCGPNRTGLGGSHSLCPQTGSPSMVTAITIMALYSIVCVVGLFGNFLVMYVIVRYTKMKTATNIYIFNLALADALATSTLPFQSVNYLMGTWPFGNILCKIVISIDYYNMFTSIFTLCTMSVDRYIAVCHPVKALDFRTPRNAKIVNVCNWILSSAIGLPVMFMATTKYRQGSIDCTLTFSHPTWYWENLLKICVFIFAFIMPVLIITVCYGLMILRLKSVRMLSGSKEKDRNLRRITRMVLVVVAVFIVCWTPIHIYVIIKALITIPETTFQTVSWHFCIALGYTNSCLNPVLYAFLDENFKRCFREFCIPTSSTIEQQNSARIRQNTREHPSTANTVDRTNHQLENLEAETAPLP

δOP KO mice [6] = test: Two-bottle choice alcohol paradigm in δOP KO mice; type: in vivo, mouse; conditions: male δOP KO mice
FLAG-mouse κOP = target: T5, FLAG-mouse κOP (Mus musculus, UniProt P33534); type: cell-based; conditions: for IC50: read-out: cAMP IC50
T5 construct: FLAG (N); expressed in transfected cells; host or cells: HEK cells, transient transfection together with pGloSensor22F
T5 sequence (P33534 whole entry): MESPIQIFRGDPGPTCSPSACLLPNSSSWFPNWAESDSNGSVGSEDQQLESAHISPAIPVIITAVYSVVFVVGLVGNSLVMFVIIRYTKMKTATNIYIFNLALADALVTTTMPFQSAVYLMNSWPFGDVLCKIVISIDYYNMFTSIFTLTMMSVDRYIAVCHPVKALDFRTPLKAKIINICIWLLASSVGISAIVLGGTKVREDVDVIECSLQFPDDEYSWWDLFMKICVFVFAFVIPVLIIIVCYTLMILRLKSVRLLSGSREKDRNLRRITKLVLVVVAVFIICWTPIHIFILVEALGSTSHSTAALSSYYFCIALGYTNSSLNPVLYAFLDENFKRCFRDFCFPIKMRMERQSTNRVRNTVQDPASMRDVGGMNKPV

μOP = μOP (Homo sapiens, UniProt P35372); type: binding; set-up: membranes isolated; conditions: for Binding pKi / Ki: [3H]DAMGO, CHO membranes; for Ki: read-out: Binding Ki
Chain of μOP (P35372 whole entry): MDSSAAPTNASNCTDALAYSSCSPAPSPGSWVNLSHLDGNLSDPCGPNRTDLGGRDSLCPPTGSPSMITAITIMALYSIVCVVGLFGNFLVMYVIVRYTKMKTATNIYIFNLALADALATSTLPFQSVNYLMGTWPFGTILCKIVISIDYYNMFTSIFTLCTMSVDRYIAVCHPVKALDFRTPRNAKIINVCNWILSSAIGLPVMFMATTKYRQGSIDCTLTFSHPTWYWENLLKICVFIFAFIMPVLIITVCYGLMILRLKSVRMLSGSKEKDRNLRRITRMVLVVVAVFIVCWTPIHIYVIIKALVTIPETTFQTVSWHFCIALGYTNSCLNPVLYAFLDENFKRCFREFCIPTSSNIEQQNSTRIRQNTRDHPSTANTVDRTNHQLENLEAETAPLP

male mice = test: Tail flick thermal nociception assay; type: in vivo, mouse
male, WT mice = test: Conditioned place preference (brief and extended); conditions: 10 mg·kg^−1; four conditioning sessions each for drug and vehicle
WT mice [7] = test: Locomotor evaluation
wildtype mice = test: Seizure assay (modified racine scale); conditions: 10 mg·kg^−1
δOP KO mice [8] = test: Accelerating rotarod test in δOP KO mice
κOP [9] = target: T1, κOP; type: cell-based
WT mice [10] = test: Accelerating rotarod test; conditions: 30 mg·kg^−1 i.p.
[11] = 30 mg·kg^−1 (7-hydroxypaynantheine s.c., speciociliatine i.p.), WT male mice

T1 sequence (P41145 whole entry): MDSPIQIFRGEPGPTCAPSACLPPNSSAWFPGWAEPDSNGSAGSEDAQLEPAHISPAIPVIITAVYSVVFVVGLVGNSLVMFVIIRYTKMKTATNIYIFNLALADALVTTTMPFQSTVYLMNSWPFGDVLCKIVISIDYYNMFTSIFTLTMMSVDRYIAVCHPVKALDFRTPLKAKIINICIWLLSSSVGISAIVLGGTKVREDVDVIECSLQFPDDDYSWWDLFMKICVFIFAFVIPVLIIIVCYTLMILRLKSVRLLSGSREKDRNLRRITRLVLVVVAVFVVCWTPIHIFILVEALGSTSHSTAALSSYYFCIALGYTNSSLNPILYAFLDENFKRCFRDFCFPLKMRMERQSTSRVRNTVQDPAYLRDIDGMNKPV

Compound: CC[C@H]1CN2CCc3c([nH]c4cccc(OC)c34)[C@@H]2C[C@@H]1/C(=C\OC)C(=O)OC [SPG, speciogynine, reference compound]
- Binding pKi (κOP [1]): 5.4 ± 0.1 (5)
- Ki (κOP [1]): 3000 nM
- alcohol intake, in words (C57Bl/6 wild-type mice [2]; systemic (i.p.) injection, modified 2-bottle choice, male C57BL/6 mice, FIG. 1): reduce alcohol intake
- Binding pKi (δOP [3]): 5.1 ± 0.1 (6)
- Ki (δOP [3]): 5340 nM

Compound: Oc1ccc2c3c1O[C@H]1c4[nH]c5ccccc5c4C[C@@]4(O)[C@@H](C2)N(CC2CC2)CC[C@]314 [naltrindole]
- alcohol intake, in words (previous reports) (C57Bl/6 wild-type mice [4]; 10 mg·kg^−1): not decrease alcohol intake

Compound: Leu-enkephalin [reference compound]
- β-arrestin 2 α (δOP [5]; normalized to positive control Leu-Enk): 100
- cAMP α (FLAG-mouse δOP): 100

Compound: COc1ccsc1CNCC[C@@]1(c2ccccn2)CCOC2(CCCC2)C1 [Oliceridine]
- alcohol consumption, in words (previous reports) (C57Bl/6 wild-type mice [4]): not decrease alcohol consumption

Compound: C=C[C@H]1CN2CC[C@@]3(O)C(=Nc4cccc(OC)c43)[C@@H]2C[C@@H]1/C(=C\OC)C(=O)OC [70H PAYN, 7-Hydroxypaynantheine]
- cAMP inhibition at the μOP, in words (HA-mouse μOP): lowest potency at the μOP; also recorded: reduced μOP potency
- cAMP α (HA-mouse μOP): 80 ± 40
- IC50 (HA-mouse μOP): 21800 nM
- cAMP pIC50 (HA-mouse μOP): 4.7±0.5
- Binding pKi (κOP [1]): 5.1 ± 0.1 (3)
- Ki (κOP [1]): 7460 nM
- ethanol consumption, in words (C57Bl/6 wild-type mice [2]; 10 mg·kg^−1 s.c., WT mice, listed as 7-hydroxypaynanthiene): not 10 mg·kg^−1
- ethanol consumption, in words (C57Bl/6 wild-type mice [2]; [11]): significantly reduce alcohol intake; also recorded: significantly decreased ethanol consumption
- ethanol consumption, in words (C57Bl/6 wild-type mice [2]; 30 mg·kg^−1 (7-hydroxypaynantheine s.c., speciociliatine i.p.), WT male mice, listed as 7-hydroxypaynanthiene): efficacious activity; also recorded: decreased the percent ethanol consumption
- average decrease of ethanol consumption (C57Bl/6 wild-type mice [2]; 30 mg·kg^−1, WT mice): 1.1 ± 0.3 g/kg
- percent reduction of ethanol consumption (C57Bl/6 wild-type mice [2]; 30 mg·kg^−1, WT mice): 40±11%
- ethanol consumption in δOP KO mice, in words (δOP KO mice [6]; 30 mg·kg^−1): did not significantly decrease ethanol consumption; also recorded: alcohol consumption was not significantly altered
- δOP binding, in words (δOP [3]): a magnitude weaker in binding the δOP than 7-hydroxyspeciogynine
- Binding pKi (δOP [3]): 4.9±0.2
- Ki (δOP [3]): 12700 nM
- cAMP α (FLAG-mouse δOP): 70 ± 20
- IC50 (FLAG-mouse δOP): 5740 nM
- cAMP pIC50 (FLAG-mouse δOP): 5.2 ± 0.3 (5)
- cAMP inhibition at the κOP, in words (FLAG-mouse κOP): not detected at the tested dose range
- Binding pKi (μOP): 5.2 ± 0.1 (3)
- Ki (μOP): 6150 nM

Compound: CN1CC[C@]2(c3cccc(O)c3)Cc3nc4ccccc4cc3C[C@H]2C1 [TAN-67]
- alcohol consumption, in words (previous reports) (C57Bl/6 wild-type mice [4]): efficaciously reduces alcohol use

Compound: CC[C@H]1CN2CC[C@@]3(O)C(=Nc4cccc(OC)c43)[C@@H]2C[C@@H]1/C(=C\OC)C(=O)OC [7OH SPG, 7-hydroxyspeciogynine]
- cAMP inhibition at the μOP, in words (HA-mouse μOP): lowest potency at the μOP; also recorded: reduced μOP potency
- cAMP α (HA-mouse μOP): 66 ± 6
- IC50 (HA-mouse μOP): 2400 nM
- cAMP pIC50 (HA-mouse μOP): 6.2±0.3
- block of morphine analgesia (antagonist mode) (male mice; 10 mg·kg^−1, then morphine 6 mg·kg^−1 s.c. 10 minutes later): did not produce antinociception (paired, two-tailed t-test, t=0.6193, df=9, p=0.5511) or block morphine analgesia
- antinociception (agonist mode) (male mice; 10 mg·kg^−1, 30 minutes after drug): did not produce antinociception
- Binding pKi (κOP [1]): 5.8 ± 0.2 (3)
- Ki (κOP [1]): 1630 nM
- ethanol consumption, in words (C57Bl/6 wild-type mice [2]; 3 mg·kg^−1 s.c., WT male and female mice): reduced alcohol intake; also recorded: efficacious activity; also recorded: dose-dependently decreased ethanol consumption; also recorded: significantly decreased the percent ethanol consumption
- average decrease of ethanol consumption (C57Bl/6 wild-type mice [2]; 10 mg·kg^−1, WT mice): 1.2 ± 0.2 g/kg
- percent reduction of ethanol consumption (C57Bl/6 wild-type mice [2]; 10 mg·kg^−1, WT mice): 40±7%
- ethanol consumption, in words (C57Bl/6 wild-type mice [2]; 10 mg·kg^−1 s.c., WT mice): reduced alcohol intake; also recorded: dose-dependently decreased ethanol consumption; also recorded: significantly decreased the percent ethanol consumption
- conditioned place preference, extended protocol (male, WT mice): did not develop conditioned place preference
- ambulation / locomotor activity (WT mice [7]; 10 mg·kg^−1): did not significantly alter ambulation
- ethanol consumption in δOP KO mice, in words (δOP KO mice [6]; 3 mg·kg^−1): did not significantly decrease ethanol consumption; also recorded: alcohol consumption was not significantly altered
- ethanol consumption in δOP KO mice, in words (δOP KO mice [6]; 10 mg·kg^−1): did not significantly decrease ethanol consumption; also recorded: alcohol consumption was not significantly altered
- δOP binding, in words (δOP [3]): improved binding relative to speciogynine
- Binding pKi (δOP [3]): 6.3±0.1
- Ki (δOP [3]): 460 nM
- cAMP inhibition at the δOP, in words (FLAG-mouse δOP): strongest activator at the δOP
- difference in potency at the δOP between 7-hydroxyspeciogynine and 7-hydroxypaynantheine (FLAG-mouse δOP): 10 fold
- cAMP α (FLAG-mouse δOP): 76 ± 6
- IC50 (FLAG-mouse δOP): 2270 nM
- cAMP pIC50 (FLAG-mouse δOP): 5.6 ± 0.1 (6)
- seizure activity (wildtype mice): did not significantly alter ambulation (paired, two-tailed t-test, t=0.7552, df=6, p=0.4787) (FIG. 5B) or induce seizures
- cAMP pIC50 (FLAG-mouse κOP): 5.1 ± 0.3 (3)
- cAMP α (FLAG-mouse κOP): 80 ± 20
- IC50 (FLAG-mouse κOP): 7710 nM
- μOP affinity, in words (μOP): strongest μOP affinity

Compound: C=CCN1CC[C@]23c4c5ccc(O)c4O[C@H]2C(=O)CC[C@@]3(O)[C@H]1C5 [naloxone, naloxone hydrochloride]
- block of 7-hydroxymitragynine-induced hyperlocomotion (WT mice [7]; dose of naloxone considered to be μOP-selective): completely blocked

Compound: C=CC1CN2CCC3(Nc4cccc(OC)c4C3=O)C2CC1C(=COC)C(=O)OC (stereo not shown) [PAYN PI, Paynantheine Pseudoindoxyl]
- cAMP inhibition at the μOP, in words (HA-mouse μOP): lowest potency at the μOP
- cAMP α (HA-mouse μOP): 60 ± 6
- IC50 (HA-mouse μOP): 4820 nM
- cAMP pIC50 (HA-mouse μOP): 5.3 ± 0.2 (4)
- Binding pKi (κOP [1]): 5.9 ± 0.1 (4)
- Ki (κOP [1]): 1310 nM
- Binding pKi (δOP [3]): 6.0 ± 0.1 (3)
- Ki (δOP [3]): 920 nM
- Binding pKi (μOP): 6.2 ± 0.1 (3)
- Ki (μOP): 680 nM

Compound: CC[C@H]1CN2CC[C@]3(Nc4cccc(OC)c4C3=O)[C@@H]2C[C@@H]1/C(=C\OC)C(=O)OC [SPG PI, Speciogynine Pseudoindoxyl]
- cAMP α (HA-mouse μOP): 58 ± 4
- IC50 (HA-mouse μOP): 230 nM
- cAMP pIC50 (HA-mouse μOP): 6.6 ± 0.2 (5)
- Binding pKi (κOP [1]): 6.1 ± 0.1 (3)
- Ki (κOP [1]): 750 nM
- Binding pKi (δOP [3]): 6.0 ± 0.1 (3)
- Ki (δOP [3]): 940 nM
- cAMP α (FLAG-mouse δOP): 80 ± 20
- IC50 (FLAG-mouse δOP): 8530 nM
- cAMP pIC50 (FLAG-mouse δOP): 5.1 ± 0.3 (4)
- cAMP pIC50 (FLAG-mouse κOP): 4.7 ± 0.5 (4)
- cAMP α (FLAG-mouse κOP): 80 ± 30
- IC50 (FLAG-mouse κOP): 20600 nM
- Binding pKi (μOP): 7.1 ± 0.1 (3)
- Ki (μOP): 77 nM

Compound: CC[C@@H]1CN2CCc3c([nH]c4cccc(OC)c34)[C@H]2C[C@@H]1/C(=C\OC)C(=O)OC [SPECIO, speciociliatine]
- death and seizures in the rotarod assay (δOP KO mice [8]; 30 mg/kg i.p.): one δOP KO mouse died after experiencing severe, level 5-6 seizures
- rotarod performance, in words (δOP KO mice [8]; 30 mg·kg^−1 i.p.): The same effect was observed in δOP KO mice; also recorded: significantly impairs motor incoordination; also recorded: significantly decreased time spent on the rod
- β-arrestin2 recruitment, in words (κOP [9]): no β-arrestin2 recruitment was detected
- Binding pKi (κOP [1]): 6.2 ± 0.1 (4)
- Ki (κOP [1]): 590 nM
- ethanol consumption, in words (C57Bl/6 wild-type mice [2]; [11]): significantly decreased ethanol consumption; also recorded: significant and sharp decrease in alcohol consumption
- average decrease of ethanol consumption (C57Bl/6 wild-type mice [2]; 30 mg·kg^−1, WT mice): 2.5 ± 0.3 g/kg
- percent reduction of ethanol consumption (C57Bl/6 wild-type mice [2]; 30 mg·kg^−1, WT mice): 90±3%
- β-arrestin2 recruitment, in words (δOP [5]): no β-arrestin2 recruitment was detected
- rotarod performance (time spent on the rod), in words (WT mice [10]): significantly reduced the ability of treated wildtype mice to perform in the rotarod assessment; also recorded: significantly impairs motor incoordination; also recorded: significantly decreased time spent on the rod
- time of full recovery on rotarod (WT mice [10]; post-injection): 120 min
- δOP binding, in words (δOP [3]): displayed binding at the δOP
- Binding pKi (δOP [3]): 5.4±0.1
- Ki (δOP [3]): 4340 nM
